Source: patent publication US10519423B1, “High efficiency reprogramming of fibroblasts into cardiomyocytes” (The Regents of the University of Colorado, a body corporate, priority 2015, dated 2019)

Experiments:
Assay type in all cases: cell-based, mouse
TTFs = test: qPCR of cardiac genes in tail-tip fibroblasts; conditions: GHMT2m-TTFs treated with A83-01 for 4 weeks
Procedure: (§1) Hearts or skinned tails from adult C57BL6 mice were cut into small pieces with ˜1 mm diameter. The biopsies were seeded on a 10 cm culture dish and incubated with 10 mL of growth medium (DMEM/Hi glucose (Hyclone), 10% FBS (Gemini:), 1.1% Penicillin-Streptomycin (Gibco) and 1.1% GlutaMAX supplement (Gibco)) at 37° C. with 5% CO2. TTFs migrated out of the biopsies after 3 days. The media were changed every other day. Once the TTFs have reached a 70-80% confluence, the cells were harvested and stored for future use.
(§2) Cells were harvested in TRizol reagent (Ambion) for RNA isolation. RNA was extracted with the RNeasy® Plus Universal Mini Kit (Qiagen). RT-PCR was performed using the Superscript III first-strand synthesis system (Invitrogen). qPCR was performed using the SYBR® Green PCR master mix (Applied Biosystems) or StepOne™ Real-Time PCR Systems (Applied Biosystems). Primers are listed in Supplementary Table 1. Ryr2 (Mm00465877_m1) and Myh7 (Mm01319006_91) are Taqman probes (Life technologies).

[1] = system: adult cardiac fibroblasts (ACFs); test: Immunocytochemistry for cTnT and α-actinin in adult cardiac fibroblasts; conditions: by 4 weeks, without or with A83-01
Procedure: as §1
(§3) Fibroblasts were plated on tissue culture dishes pre-coated with SureCoat (Cellutron) at a density of ˜40 cells/mm^2 before transduction. The fibroblast growth medium was replaced with freshly made viral mixture containing polybrene (Sigma). Twenty-four hours later, fibroblasts were infected again with viral mixture containing polybrene. Twenty fours later, the viral medium was replaced with induction medium, composed of DMEM/199 (4:1) (Gibco), 10% FBS (Gemini), 5% horse serum(Gemini), antibiotics (Gibco), 1× non-essential amino acids (Gibco), 1× essential amino acids (Gibco), 1× B-27 (Gibco), 1× insulin-selenium-transferin (Gibco), 1× vitamin mixture (Gibco), and 1× sodium pyruvate (Gibco). Medium was changed every two-three days until cells were examined.
(§4) Cells were fixed in 2% PFA for 15 min on ice then washed with DPBS (Gibco) three times at RT. […]

MEFs [2] = test: Pro-fibrotic marker expression in infected MEFs (qPCR, Western blot, αSMA stress fiber immunostaining); conditions: A83-01 0.5 μM, day 7
Procedure: as §2
Samples were placed on ice and washed with ice-cold DPBS (Gibco) twice, then ice-cold lysis buffer (150 mM NaCl, 50 mM Tris-Cl pH7.4, 1 mM EDTA, 1% Triton, Complete mini tablet (Roche), 1 mM PMSF freshly added before use) was added to the cells. Cells were scraped and transferred to a pre-chilled 1.5 Eppendorf tube and frozen in liquid N2. Before used, the lysate was thawed on ice. The lysate was passed carefully through a 25 g needle for 5 times and then centrifuge at 14,000 rpm for 15 minutes at 4° C. The supernatant was transferred to a new 1.5 ml tube. The protein concentration was measured and 20 ug of lysate for each sample was loaded to SDSPAGE. Proteins were then transferred to PVDF. The PDVF membrane was blocked in 2.5% BSA in 1×TBST for 30 mins at room temperature (RT). The primary antibody was added in blocking buffer for 60 mins at RT. Wash in 1×TBST (20 mM Tris-Cl, pH7.4; 150 mM NaCl; 0.1% Tween20) three times at RT, each for 15 mins. The Secondary antibody was added in blocking buffer for 45 mins at RT. The membrane was washed in 1 XTBST for 15 mins, 1×TBST for 5 mins, then TBS (10 mM Tris-Cl pH8, 150 mM NaCl) for 5 mins. The membrane was resolved with Super Signal® West Pico (34080) or Femto (34095) substrate (Thermo Scientfic). The primary antibodies include: Snail (Cell Signaling, 3879S, 1:1000), Slug (Cell Signaling, 9585S, 1:1000), P-Smad2 (Cell Signaling, 23108P, 1:1000), Smad2 (Cell Signaling, 5339, 1:1000), αSMA (Santa Cruz, SC-32251, 1:10000), cTn1 (Phospho Solutions, 2010-TNI, 1:1000), cTnT (Sigma, T6277, 1:1000), and GAPDH (Ambion, AM4300). The secondary antibodies include: Goat Anti-Mouse IgG (H+L) (Southern Biotech, 1031-05, 1:2000). Goat Anti-Rabbit IgG (Life Technologies, 65-6120, 1:2000). For separation of α- and β-myosin heavy chain, samples were run by modified 6% SDS-PAGE (separating acrylamide/bis ratio 1:100; resolving gel buffer pH 9.0; running gel buffer pH 8.2; β-mercaptoethanol 600 μl/l inner gel buffer). Gels were run overnight at 4° C. and stained with BioSafe Coomassie Blue protein stain.
Cells were fixed in 2% PFA for 15 min on ice then washed with DPBS (Gibco) three times at RT. The cells were permeabilized in 0.5% Triton X-100 (made in PBS) for 20 min at RT. After washing the cells with DPBS (Gibco), cells were incubated with the primary antibody against α-actinin (Sigma A7811, 1:300), Connexin 43 (Sigma, C6219, 1:500), Troponin T (Thermo Scientific MS-245-P, 1:500), α-SMA (Santa Cruz Biotechnology, SC-32251, 1:800), Myl2 (Proteintech, 10906-1-AP, 1:200), or Myl7 (Proteintech, 17283-1-AP, 1:200) in 10% FBS(Gemini) in DPBS for 1 hour at RT. Cells were wash with DPBS three times, 5 min each. Cell were incubated with the secondary antibody (Alexa Fluor 555 Molecular Probes A21422, 1:1000) and Hoechest (Molecular Probes 33342, 1:5000) for 30 mins at RT.

MEFs [3] = test: Counting of spontaneously beating cells in infected MEFs
Procedure: as §3
(§5) Cells in 60 mm dishes were examined under an EVOS® FL Color imaging system (Life Technologies) at 25° C. Beating cells were counted at a field with an area of 0.89 mm^2. Ten to fifteen fields in each dish were randomly chosen.

[4] = system: adult cardiac fibroblasts (ACFs); test: qPCR of cardiac genes in adult cardiac fibroblasts; conditions: infected ACFs treated with A83-01 for 4 weeks
Procedure: as §1, §2

[5] = system: adult tail-tip fibroblasts (ATTFs); test: Counting of spontaneously beating cells in adult tail-tip fibroblasts; conditions: GHMT2m-ATTFs treated with A83-01 (0.5 μM)
Procedure: as §1, §3, §5

MEFs [6] = test: qPCR of cardiac genes in reprogramming MEFs; conditions: reprogramming MEFs treated with A83-01 for 5 days, day 7
Procedure: as §2

[7] = system: adult tail-tip fibroblasts (ATTFs); test: Immunocytochemistry for cTnT and α-actinin in adult tail-tip fibroblasts; conditions: GHMT2m-infected ATTFs; DMSO or A83-01 for 2 weeks
Procedure: as §1, §3, §4

Cc1cccc(-c2nn(C(=S)Nc3ccccc3)cc2-c2ccnc3ccccc23)n1 [A83-01]
cardiomyocyte gene expression (TTFs): Enhanced
ACFs positive for cTnT ([1]; GHMT2m-infected ACFs): approximately 18%
ACFs positive for cTnT ([1]; GHMT-infected ACFs): approximately 10%
expression of Fn-EDA, Col1a1 and Col3a1, and formation of αSMA+ stress fibers (MEFs [2]; GHMT- and GHMT2m-infected cultures): inhibited
phosphorylation of Smad2 (MEFs [2]; MEFs): decreased
increase of the number of beating cells (MEFs [3]; GHMT2m-infected MEFs treated with A83-01, by day 8): 8 fold
spontaneously contracting cells per cm^2 (MEFs [3]; GHMT-infected MEFs treated with A83-01 (0.5 μM), by 4 weeks): about 4400 cells per cm^2
time by which cells started to beat (MEFs [3]; MEFs, GHMT2m alone, or GHMT-infected cultures treated with Y-27632 (30 μM) or A83-01 (0.5 μM)): ≤ 11 days
expression of other cardiac genes, Actc1, Myh6 and Ryr2 [4]: enhanced
time by which spontaneously beating cells appeared [5]: 2-3 weeks
spontaneously contracting cells ([5]; by 4 weeks): about 4%
spontaneously contracting cells per cm^2 ([5]; by 4 weeks): approximately 300 cells per cm^2
program of cardiomyocyte gene expression (MEFs [6]): enhanced
adult TTFs positive for cTnT and α-actinin [7]: approximately 30%
